According to the supplement of paper PMC10307832:

Experiments:
Assay in all cases: relative viability (nuclei count vs DMSO), 5 days (fraction); higher = more cells survive
PC-3 [JPC-3] = system: PC-3 [JPC-3]
Summary of the method: (§1)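 The day after seeding in 1536-well plates, lung cancer cell lines were treated by pin tool with a single drug, or with a fixed anchor-drug dose together with five library-drug doses (not always all listed) in √10 steps. After 5 days, a combined fix-and-stain solution (final 0.05% Triton X-100, 1% formaldehyde, 1 ug/ml Hoechst) was added. Nuclei counted on 4× images gave relative viability as treated counts over vehicle counts, reported as the median of duplicate plates.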

LU99A = system: LU99A
Summary of the method: as §1

NCI-H2405 = system: NCI-H2405
Summary of the method: as §1

HCC-78 = system: HCC-78
Summary of the method: as §1

NCI-H1755 = system: NCI-H1755
Summary of the method: as §1

NCI-H1395 = system: NCI-H1395
Summary of the method: as §1

LOU-NH91 = system: LOU-NH91
Summary of the method: as §1

NCI-H460 = system: NCI-H460
Summary of the method: as §1

LC-2-ad = system: LC-2-ad
Summary of the method: as §1

UMC-11 = system: UMC-11
Summary of the method: as §1

NCI-H3122 = system: NCI-H3122
Summary of the method: as §1

ABC-1 = system: ABC-1
Summary of the method: as §1

NCI-H1793 = system: NCI-H1793
Summary of the method: as §1

RERF-LC-KJ = system: RERF-LC-KJ
Summary of the method: as §1

ChaGo-K-1 = system: ChaGo-K-1
Summary of the method: as §1

NCI-H1944 = system: NCI-H1944
Summary of the method: as §1

NCI-H1651 = system: NCI-H1651
Summary of the method: as §1

NCI-H2170 = system: NCI-H2170
Summary of the method: as §1

HCC-366 = system: HCC-366
Summary of the method: as §1

NCI-H2087 = system: NCI-H2087
Summary of the method: as §1

CAL-12T = system: CAL-12T
Summary of the method: as §1

NCI-H2228 = system: NCI-H2228
Summary of the method: as §1

## COc1nc(C)cnc1NS(=O)(=O)c1cccnc1-c1ccc(-c2nnco2)cc1 [Zibotentan] + Nc1ncn([C@H]2C[C@H](O)[C@@H](CO)O2)c(=O)n1 [Decitabine] (partner 2 µM)
PC-3 [JPC-3]; first compound 0.08 µM
  relative viability: 0.836
PC-3 [JPC-3]; first compound 0.253 µM
  relative viability: 0.777
PC-3 [JPC-3]; first compound 0.8 µM
  relative viability: 0.85
PC-3 [JPC-3]; first compound 2.53 µM
  relative viability: 0.851
LU99A; first compound 0.08 µM
  relative viability: 0.933
LU99A; first compound 0.253 µM
  relative viability: 0.848
LU99A; first compound 0.8 µM
  relative viability: 0.95
LU99A; first compound 2.53 µM
  relative viability: 1.06
NCI-H2405; first compound 0.08 µM
  relative viability: 0.764
NCI-H2405; first compound 0.253 µM
  relative viability: 0.684
NCI-H2405; first compound 0.8 µM
  relative viability: 0.767
NCI-H2405; first compound 2.53 µM
  relative viability: 0.73
HCC-78; first compound 0.08 µM
  relative viability: 0.795
HCC-78; first compound 0.253 µM
  relative viability: 0.564
HCC-78; first compound 0.8 µM
  relative viability: 0.68
HCC-78; first compound 2.53 µM
  relative viability: 0.656
NCI-H1755; first compound 0.08 µM
  relative viability: 0.737
NCI-H1755; first compound 0.253 µM
  relative viability: 0.616
NCI-H1755; first compound 0.8 µM
  relative viability: 0.8
NCI-H1755; first compound 2.53 µM
  relative viability: 0.732
NCI-H1395; first compound 0.08 µM
  relative viability: 0.736
NCI-H1395; first compound 0.253 µM
  relative viability: 0.68
NCI-H1395; first compound 0.8 µM
  relative viability: 0.708
NCI-H1395; first compound 2.53 µM
  relative viability: 0.674
LOU-NH91; first compound 0.08 µM
  relative viability: 0.799
LOU-NH91; first compound 0.253 µM
  relative viability: 0.78
LOU-NH91; first compound 0.8 µM
  relative viability: 0.879
LOU-NH91; first compound 2.53 µM
  relative viability: 0.815
NCI-H460; first compound 0.08 µM
  relative viability: 0.444
NCI-H460; first compound 0.253 µM
  relative viability: 0.287
NCI-H460; first compound 0.8 µM
  relative viability: 0.464
NCI-H460; first compound 2.53 µM
  relative viability: 0.509
LC-2-ad; first compound 0.08 µM
  relative viability: 0.66
LC-2-ad; first compound 0.253 µM
  relative viability: 0.816
LC-2-ad; first compound 0.8 µM
  relative viability: 0.718
LC-2-ad; first compound 2.53 µM
  relative viability: 0.781
UMC-11; first compound 0.08 µM
  relative viability: 0.576
UMC-11; first compound 0.253 µM
  relative viability: 0.532
UMC-11; first compound 0.8 µM
  relative viability: 0.634
UMC-11; first compound 2.53 µM
  relative viability: 0.697
NCI-H3122; first compound 0.08 µM
  relative viability: 0.472
NCI-H3122; first compound 0.253 µM
  relative viability: 0.379
NCI-H3122; first compound 0.8 µM
  relative viability: 0.357
NCI-H3122; first compound 2.53 µM
  relative viability: 0.377
ABC-1; first compound 0.08 µM
  relative viability: 0.829
ABC-1; first compound 0.253 µM
  relative viability: 1.12
ABC-1; first compound 0.8 µM
  relative viability: 0.939
ABC-1; first compound 2.53 µM
  relative viability: 1.06
NCI-H1793; first compound 0.08 µM
  relative viability: 0.503
NCI-H1793; first compound 0.253 µM
  relative viability: 0.471
NCI-H1793; first compound 0.8 µM
  relative viability: 0.528
NCI-H1793; first compound 2.53 µM
  relative viability: 0.635
RERF-LC-KJ; first compound 0.08 µM
  relative viability: 0.699
RERF-LC-KJ; first compound 0.253 µM
  relative viability: 0.558
RERF-LC-KJ; first compound 0.8 µM
  relative viability: 0.708
RERF-LC-KJ; first compound 2.53 µM
  relative viability: 0.634
ChaGo-K-1; first compound 0.08 µM
  relative viability: 0.512
ChaGo-K-1; first compound 0.253 µM
  relative viability: 0.493
ChaGo-K-1; first compound 0.8 µM
  relative viability: 0.508
ChaGo-K-1; first compound 2.53 µM
  relative viability: 0.55
NCI-H1944; first compound 0.08 µM
  relative viability: 0.433
NCI-H1944; first compound 0.253 µM
  relative viability: 0.431
NCI-H1944; first compound 0.8 µM
  relative viability: 0.425
NCI-H1944; first compound 2.53 µM
  relative viability: 0.426
NCI-H1651; first compound 0.08 µM
  relative viability: 0.657
NCI-H1651; first compound 0.253 µM
  relative viability: 0.607
NCI-H1651; first compound 0.8 µM
  relative viability: 0.567
NCI-H1651; first compound 2.53 µM
  relative viability: 0.516
NCI-H2170; first compound 0.08 µM
  relative viability: 0.449
NCI-H2170; first compound 0.253 µM
  relative viability: 0.463
NCI-H2170; first compound 0.8 µM
  relative viability: 0.341
NCI-H2170; first compound 2.53 µM
  relative viability: 0.463
HCC-366; first compound 0.08 µM
  relative viability: 0.391
HCC-366; first compound 0.253 µM
  relative viability: 0.317
HCC-366; first compound 0.8 µM
  relative viability: 0.331
HCC-366; first compound 2.53 µM
  relative viability: 0.358
NCI-H2087; first compound 0.08 µM
  relative viability: 0.342
NCI-H2087; first compound 0.253 µM
  relative viability: 0.287
NCI-H2087; first compound 0.8 µM
  relative viability: 0.325
NCI-H2087; first compound 2.53 µM
  relative viability: 0.331

## COc1nc(C)cnc1NS(=O)(=O)c1cccnc1-c1ccc(-c2nnco2)cc1 [Zibotentan] + C[C@@H](Oc1cc(-c2cnn(C3CCNCC3)c2)cnc1N)c1c(Cl)ccc(F)c1Cl [Crizotinib] (partner 1 µM)
PC-3 [JPC-3]; first compound 0.08 µM
  relative viability: 0.951
PC-3 [JPC-3]; first compound 0.253 µM
  relative viability: 0.967
PC-3 [JPC-3]; first compound 0.8 µM
  relative viability: 0.955
PC-3 [JPC-3]; first compound 2.53 µM
  relative viability: 0.966
LU99A; first compound 0.08 µM
  relative viability: 0.537
LU99A; first compound 0.253 µM
  relative viability: 0.527
LU99A; first compound 0.8 µM
  relative viability: 0.645
LU99A; first compound 2.53 µM
  relative viability: 0.617
NCI-H2405; first compound 0.08 µM
  relative viability: 0.907
NCI-H2405; first compound 0.253 µM
  relative viability: 0.882
NCI-H2405; first compound 0.8 µM
  relative viability: 0.789
NCI-H2405; first compound 2.53 µM
  relative viability: 0.881
HCC-78; first compound 0.08 µM
  relative viability: 0.336
HCC-78; first compound 0.253 µM
  relative viability: 0.311
HCC-78; first compound 0.8 µM
  relative viability: 0.324
HCC-78; first compound 2.53 µM
  relative viability: 0.343
CAL-12T; first compound 0.08 µM
  relative viability: 0.667
CAL-12T; first compound 0.253 µM
  relative viability: 0.553
CAL-12T; first compound 0.8 µM
  relative viability: 0.602
CAL-12T; first compound 2.53 µM
  relative viability: 0.712
NCI-H1755; first compound 0.08 µM
  relative viability: 0.891
NCI-H1755; first compound 0.253 µM
  relative viability: 0.887
NCI-H1755; first compound 0.8 µM
  relative viability: 0.826
NCI-H1755; first compound 2.53 µM
  relative viability: 0.873
LOU-NH91; first compound 0.08 µM
  relative viability: 0.742
LOU-NH91; first compound 0.253 µM
  relative viability: 0.717
LOU-NH91; first compound 0.8 µM
  relative viability: 0.758
LOU-NH91; first compound 2.53 µM
  relative viability: 0.729
NCI-H460; first compound 0.08 µM
  relative viability: 1.2
NCI-H460; first compound 0.8 µM
  relative viability: 1.01
NCI-H460; first compound 2.53 µM
  relative viability: 0.903
LC-2-ad; first compound 0.08 µM
  relative viability: 0.511
LC-2-ad; first compound 0.253 µM
  relative viability: 0.448
LC-2-ad; first compound 0.8 µM
  relative viability: 0.493
LC-2-ad; first compound 2.53 µM
  relative viability: 0.469
UMC-11; first compound 0.08 µM
  relative viability: 0.606
UMC-11; first compound 0.253 µM
  relative viability: 0.64
UMC-11; first compound 0.8 µM
  relative viability: 0.62
UMC-11; first compound 2.53 µM
  relative viability: 0.568
NCI-H3122; first compound 0.08 µM
  relative viability: 0.259
NCI-H3122; first compound 0.253 µM
  relative viability: 0.234
NCI-H3122; first compound 0.8 µM
  relative viability: 0.269
NCI-H3122; first compound 2.53 µM
  relative viability: 0.282
NCI-H2228; first compound 0.08 µM
  relative viability: 0.548
NCI-H2228; first compound 0.253 µM
  relative viability: 0.369
NCI-H2228; first compound 0.8 µM
  relative viability: 0.451
NCI-H2228; first compound 2.53 µM
  relative viability: 0.441
ABC-1; first compound 0.08 µM
  relative viability: 1.45
ABC-1; first compound 0.253 µM
  relative viability: 0.847
ABC-1; first compound 0.8 µM
  relative viability: 1.07
ABC-1; first compound 2.53 µM
  relative viability: 0.987
RERF-LC-KJ; first compound 0.08 µM
  relative viability: 0.921
RERF-LC-KJ; first compound 0.253 µM
  relative viability: 0.802
RERF-LC-KJ; first compound 0.8 µM
  relative viability: 0.786
RERF-LC-KJ; first compound 2.53 µM
  relative viability: 0.855
ChaGo-K-1; first compound 0.08 µM
  relative viability: 1.33
ChaGo-K-1; first compound 0.8 µM
  relative viability: 1.09
ChaGo-K-1; first compound 2.53 µM
  relative viability: 1.21
NCI-H1944; first compound 0.08 µM
  relative viability: 1.26
NCI-H1944; first compound 0.253 µM
  relative viability: 1.08
NCI-H1944; first compound 0.8 µM
  relative viability: 1.06
NCI-H1944; first compound 2.53 µM
  relative viability: 1.06
NCI-H1651; first compound 0.08 µM
  relative viability: 0.962
NCI-H1651; first compound 0.253 µM
  relative viability: 0.823
NCI-H1651; first compound 0.8 µM
  relative viability: 0.837
NCI-H1651; first compound 2.53 µM
  relative viability: 0.862
NCI-H2170; first compound 0.08 µM
  relative viability: 1.29
NCI-H2170; first compound 0.253 µM
  relative viability: 1.15
NCI-H2170; first compound 0.8 µM
  relative viability: 1.2
NCI-H2170; first compound 2.53 µM
  relative viability: 1.2
HCC-366; first compound 0.08 µM
  relative viability: 0.774
HCC-366; first compound 0.253 µM
  relative viability: 0.572
HCC-366; first compound 0.8 µM
  relative viability: 0.475
HCC-366; first compound 2.53 µM
  relative viability: 0.499
NCI-H2087; first compound 0.08 µM
  relative viability: 0.881
NCI-H2087; first compound 0.253 µM
  relative viability: 1.07
NCI-H2087; first compound 0.8 µM
  relative viability: 0.984
NCI-H2087; first compound 2.53 µM
  relative viability: 0.928
